Laboratory results taken from article PMC12992715, “Dual interference with host neuropeptide signaling allows parasitoid wasp to hijack host sugar metabolism” (The EMBO Journal, 2025).
No end group written: not given here.

Legend:
[1] = tested on: PxHK mRNA in the midgut; experiment: Ex vivo midgut incubation with sNPF and signalling inhibitors, PxHK mRNA; format: cell-based, Plutella xylostella; conditions: midgut ex vivo, 20 µM sNPF + 10 µM U73122 (PLCβ inhibitor), 25 °C, 1 h; n = 5; words
Description: (§1) The in vitro incubations of fat body or midgut were performed as previously described with minor modifications (Cheng et al, [2022]). The fat bodies and midguts from non-parasitised middle 4th instar P. xylostella larvae were collected in 0.5 mL of PBS. The collected tissues were then preincubated in culture dishes containing TNM-FH medium (HyClone) for 30 min. sNPF peptides or inhibitors were administered to isolated fat body and midgut in vitro using a modified method from a previous study (Oh et al, [2019]). 1 mM stock solution of pertussis toxin (PTX, Tocris Bioscience) or U73122 (MedChemExpress) was dissolved in DMSO (Sigma-Aldrich) and kept at −80 °C. 0.1 ng/µl PTX or 10 µM U73122 were then mixed with 20 µM sNPF-contained TNM-FH medium. Preincubated tissues were incubated in these mixtures at 25 °C for 1 h, followed by total RNA isolation and qPCR.

[2] = tested on: P. xylostella larvae; experiment: Circulating haemolymph trehalose after injection of synthetic sNPF peptides, venom, CvBV or teratocyte content; format: in vivo, Plutella xylostella; conditions: for effect on haemolymph trehalose level: synthetic PxsNPFs, injected into 3M larvae, measured at 4M, high dosage 0.5 ng per larva, n = 4-6, words
Description: (§2) Microinjections were performed under a Stemi 2000C microscope (Zeiss) using glass capillary injection needles and an Eppendorf Femtojet (Eppendorf) with a microcontroller (Narishige). To confirm the function of bovine insulin on hosts, 1 μg bovine insulin (Sigma-Aldrich, I0305000) was injected into the middle 3rd instar P. xylostella larvae. To identify the effect of each parasitic factor on hosts, 0.05 FE CvBV or 0.05 VRE venom was injected into the abdomen of the middle 3rd instar P. xylostella larva (Wang et al, [2018]; Yu et al, [2007]). 1 TE teratocytes’ content was microinjected into the early 4th instar P. xylostella larvae. To confirm the function of each synthetic sNPF peptide, 0.005 ng, 0.05 ng, or 0.5 ng of each peptide was injected into the middle 3rd instar P. xylostella larvae in a volume of 0.1 μl/per larva once per day for 3 consecutive days.
For P. xylostella larvae, 1 μl of haemolymph from the moth was diluted 60-fold in cold PBS and subjected to trehalose determination. The fat body of P. xylostella larvae was homogenised in 200 μl of cold PBS. Half of the homogenate was centrifuged at 13,000 rpm for 15 min, and the supernatant was used for protein content determination by Bradford Reagent (Invitrogen). The rest was heated at 70 °C for 5 min followed by centrifuging at 13,000 rpm for 15 min, and the supernatant was used for glycogen determination.
Trehalose content determination was performed by the anthrone sulfate method. 15 μL of the sample was incubated with 15 μL of 1% H2SO4 at 90 °C for 10 min, then 15 μL of 30% KOH was added and incubated at 90 °C for 10 min. Finally, 300 μl of 0.2% anthrone (Sigma-Aldrich) solution in 96% H2SO4 was added and incubated at 90 °C for 10 min. All reactions were stopped by immersion in ice. To create a trehalose standard curve, 15 μl of trehalose standards (Sigma-Aldrich) were treated similarly as a sample. Finally, 100 μl of each sample was added to a 96-well plate. The absorbance of samples was then measured at 630 nm on a SpectraMax® iD5 Multi-Mode Microplate Reader (Molecular Devices), and the trehalose levels were calculated based on the standard curve and normalised by protein content or sample volume.

[3] = tested on: PxGP, PxHK and PxTPS mRNA; experiment: qPCR of PxGP, PxHK, PxTPS in larvae injected with synthetic sNPF, venom, CvBV or teratocytes; format: in vivo, Plutella xylostella
Excerpt: (§3) To analyse gene expression in different tissues, P. xylostella larvae were dissected under the microscope, followed by the collection of the silk gland, fat body, midgut, haemocytes and central nervous system (CNS, brain and ventral nerve cord). Haemocytes were collected on clean Parafilm membranes with capillaries by bleeding the larvae from a cut proleg. To explore gene expression at different instars of parasitised or non-parasitised larvae, non-parasitised larva was isolated individually using RNA-easy Isolation Reagent (Vazyme). Parasitoid larvae were removed before parasitised hosts were isolated. As for the measurement of other experiments, per larva with different treatments was isolated individually using RNA-easy Isolation Reagent according to the manufacturer’s instructions.
(§4) The quality and concentrations of total RNAs were estimated by electrophoresis and NanoDrop 2000 spectrophotometer (Thermo Fisher Scientific). First-strand cDNAs were synthesised using the ReverTra Ace qPCR RT kit (Toyobo) according to the manufacturer’s instructions. Both β-actin (GenBank Acc. No.: AB282645) and β-tubulin (GenBank Acc. No.: EU127912) of P. xylostella were used as internal controls. Primer sequences used for qPCR analysis are shown in Appendix Table S4. qPCR was performed by using THUNDERBIRD® SYBR qPCR Mix (Toyobo) on the CFX Connect real-time system (Bio-Rad). All qPCR assays were performed using four internal replicates and at least three biological replicates under the following conditions: 95 °C for 60 s and 40 cycles of 95 °C for 15 s and 60 °C for 30 s. Relative gene expression levels were calculated using the 2^−ΔΔCt method.
as §2

[4] = tested on: PxsNPF mRNA; experiment: PxsNPF mRNA after injection of venom, CvBV or teratocytes; format: in vivo, Plutella xylostella
Excerpt: as §3
The quality and concentrations of total RNAs were estimated by electrophoresis and NanoDrop 2000 spectrophotometer (Thermo Fisher Scientific). First-strand cDNAs were synthesised using the ReverTra Ace qPCR RT kit (Toyobo) according to the manufacturer’s instructions. Both β-actin (GenBank Acc. No.: AB282645) and β-tubulin (GenBank Acc. No.: EU127912) of P. xylostella were used as internal controls. […] Relative gene expression levels were calculated using the 2^−ΔΔCt method. […]

[5] = tested on: P. xylostella larvae; experiment: Haemolymph trehalose after bovine insulin; format: in vivo, Plutella xylostella; conditions: 1 μg bovine insulin, words
Description: as §2
For P. xylostella larvae, 1 μl of haemolymph from the moth was diluted 60-fold in cold PBS and subjected to trehalose determination. The fat body of P. xylostella larvae was homogenised in 200 μl of cold PBS. […]
Trehalose content determination was performed by the anthrone sulfate method. […] The absorbance of samples was then measured at 630 nm on a SpectraMax® iD5 Multi-Mode Microplate Reader (Molecular Devices), and the trehalose levels were calculated based on the standard curve and normalised by protein content or sample volume.

[6] = tested on: PxInR, PxGP, PxHK and PxTPS mRNA; experiment: qPCR of PxInR, PxGP, PxHK, PxTPS after bovine insulin; format: in vivo, Plutella xylostella; conditions: for PxInR relative expression, average: Figure 3D; for PxInR relative expression, average / PxGP relative expression, average: normalised to Pxβ-actin and Pxβ-tubulin; for PxGP relative expression, average / PxGP relative expression: Figure 3E
Excerpt: as §3, §4, §2

[7] = tested on: Spodoptera exigua and Antheraea pernyi; conditions: bovine insulin injection, words, ref PMID: 25703302, 34564224; cited from earlier work
Excerpt: page 9: short summary of the existing data, including for instance, which species this experiment has been conducted in and the data linking bovine insulin to activation of insect insulin-like pathways. […] Response: Thank you for pointing out the need to better justify the use of bovine insulin in our experimental design.

[8] = tested on: PxGP mRNA in the fat body; experiment: Ex vivo fat body incubation with sNPF and signalling inhibitors, PxGP mRNA; format: cell-based, Plutella xylostella; conditions: 20 µM sNPF + PTX (0.4 µM in legend, 0.1 ng/µl in method), 25 °C, 1 h, n = 6, words
Description: as §1

[9] = target: Plutella xylostella sNPF receptor (PxsNPFR) (Plutella xylostella)

In the case of COc1ccc2c(c1)CC[C@@H]1[C@@H]2CC[C@]2(C)[C@@H](NCCCCCCN3C(=O)C=CC3=O)CC[C@@H]12 [U73122, reference compound], the “effect on sPxsNPF-1-stimulated PxHK mRNA” value [1] is reported as “abolished the facilitatory effect of sPxsNPF-1 on PxHK”.

With Cotesia vestalis bracovirus [CvBV] the “increase of circulating trehalose” value ([2]; 0.05 FE CvBV injected into 3M larvae, at 3L, n = 3-4) was 40%, the “PxGP relative expression, average” value ([3]; Figure 4B, CvBV injection, qPCR, Pxβ-actin and Pxβ-tubulin reference, relative to PBS (normalizer 6.00), mean of 5 replicates, SD 0.29) was 0.87 and the “PxGP relative expression, average” value ([3]; Figure 4B, PxGP vs PBS, Pxβ-actin/Pxβ-tubulin reference, mean of 5 replicates) was 1.73. For the same molecule, the “PxHK relative expression, Average” value ([3]; Figure 4B, PxHK vs PBS, Pxβ-actin/Pxβ-tubulin reference, mean of 5 replicates) was 2.64, the PxHK relative expression ([3]; Figure 4B, PxHK vs PBS, Pxβ-actin/Pxβ-tubulin reference, replicate 1) was 2.97 and the PxHK relative expression ([3]; Figure 4B, PxHK vs PBS, Pxβ-actin/Pxβ-tubulin reference, replicate 2) was 2.49. The PxHK relative expression ([3]; Figure 4B, PxHK vs PBS, Pxβ-actin/Pxβ-tubulin reference, replicate 3) was 2.41, the PxHK relative expression ([3]; Figure 4B, PxHK vs PBS, Pxβ-actin/Pxβ-tubulin reference, replicate 4) was 2.30 and the PxHK relative expression ([3]; Figure 4B, PxHK vs PBS, Pxβ-actin/Pxβ-tubulin reference, replicate 5) was 3.01. The “transcript level of PxHK” value ([3]; non-parasitised larvae (whole body), CvBV, 3L, n = 5, words) was “increases the transcript level of PxHK”, the PxsNPF expression ([4]; 24 h after injection, n = 3-6, words) was “an increase in PxsNPF expression 24 h after CvBV injection” and the “PxsNPF relative expression, Average” value ([4]; Figure 5K, 3M, average of replicates, vs PBS) was 1.99.

For “DTRQPVRLRF-NH2 [sPxsNPF-2, synthetic short neuropeptide F-2 of Plutella xylostella]”, the “effect on haemolymph trehalose level” value [2] was “did not have this effect”.

In the case of “SVRAPSMRLRF-NH2 [sPxsNPF-3, synthetic short neuropeptide F-3 of Plutella xylostella]”, the “effect on haemolymph trehalose level” value [2] is reported as “did not have this effect”.

In the case of bovine insulin, the blood trehalose level ([5]; normal (non-parasitised) larvae) is reported as “reduces the blood trehalose level”, the haemolymph trehalose level ([5]; parasitised host, 4M, n = 4-5) is reported as “not reduced by bovine insulin in the parasitised host as in the non-parasitised group” and the PxGP expression ([6]; 1 μg bovine insulin, parasitised host, 4M, n = 4-5, words) is reported as “not reduced by bovine insulin in the parasitised host as in the non-parasitised group”. The PxInR expression ([6]; 1 μg bovine insulin, whole body, 4M, n = 4-5, non-parasitised and parasitised, words) was “upregulated in both non-parasitised and parasitised hosts”, the “PxInR relative expression, average” value ([6]; NP, mean of 5 replicates) was 3.425 and the “PxInR relative expression, average” value ([6]; P, mean of 4 replicates) was 7.591. For the same molecule, the “PxGP relative expression, average” value ([6]; NP, mean of 5 replicates) was 0.3318, the PxGP relative expression ([6]; NP, replicate 1) was 0.3933 and the PxGP relative expression ([6]; NP, replicate 2) was 0.2777. For the same molecule, the PxGP relative expression ([6]; NP, replicate 3) was 0.2734, the PxGP relative expression ([6]; NP, replicate 4) was 0.4168 and the PxGP relative expression ([6]; NP, replicate 5) was 0.298. For the same molecule, the “PxGP relative expression, average” value ([6]; P, mean of 4 replicates) was 3.4733, the PxGP relative expression ([6]; P, replicate 1) was 3.51 and the PxGP relative expression ([6]; P, replicate 2) was 4.4126. For the same molecule, the PxGP relative expression ([6]; P, replicate 3) was 3.361, the PxGP relative expression ([6]; P, replicate 4) was 2.609 and the hemolymph trehalose levels [7] was “significant reduction in hemolymph trehalose levels”.

In the case of pertussis toxin [PTX], the “effect on sCvsNPF-stimulated PxGP mRNA” value [8] is reported as “decreased the sCvsNPF activation of PxGP”.

SQRSPSLRLRF-NH2 [synthetic CvsNPF (Cotesia vestalis short neuropeptide F)] showed an inhibition of forskolin-stimulated cAMP accumulation in PxsNPFR-expressing HEK293 cells (10 μM forskolin, various peptide concentrations, 15 min; cAMP-Glo), EC50 [9] of 402 nM.
